Measured values: patent US20070077311A1, “Fumigant/sterilant” (priority 2003, published 2007)

Legend:
[1] = cited from earlier work
[2] = Flammability limit tests of cyanogen/CO2 mixtures in air; format: physicochemical
Source text: The apparatus allows continuous metering and mixing of known proportions of cyanogen, carbon dioxide and air. This permitted a number of ignition tests to be made in a relatively short period.
The apparatus comprises sources of compressed air 1, carbon dioxide 2 and the active chemical cyanogen 3. […] The resultant mixture flows through tube 7 where it is diverted to an oxygen analyser 8 to determine its content, and an ignition tube 9 with ignition source 10 for flammability testing.
Similarly, for the tests involving the addition of carbon dioxide, the proportions of air and CO2 were set using the previously arrived calibration material and at least two minutes were allowed to elapse between adjustment of the CO2/air proportions and ignition tests.
Ignition tests involved switching a high voltage across an approximately 5 mm gap 10 within the flow ignition tube 9. […]
Turning to FIG. 2, it is now possible to determine what proportion of cyanogen in carbon dioxide will remain inert in all proportions with air. Line A shown in FIG. 2 has the maximum slope that can be achieved whilst still remaining wholly below the experimentally determined lower explosive limits and passing through the origin.
For reasons of safety, the Applicant has determined a preferred content of around 20% v/v as this gives an additional margin of safety.

rat = settings: 1 hour inhalation; cited from earlier work

N#CC#N [cyanogen]
Flammability limits in air [1]: 6-32 % v/v
known LEL of cyanogen in air ([1]; literature value): 6%
known UEL of cyanogen in air ([1]; literature value): 32 % v/v
maximum proportion of cyanogen in carbon dioxide which is inert in all proportions with air ([2]; from slope of Line A in FIG. 2, ignition source 2): approximately 26%
maximum of cyanogen in carbon dioxide gas inert in all proportions of air ([2]; subsequent testing): around 26 % v/v
LC50 (rat): 350 ppm
